# From ChEMBL document CHEMBL1287709, “Trifluoromethylphenyl as P2 for ketoamide-based cathepsin S inhibitors” (Bioorg Med Chem Lett, 2010)
# Key:
# Cathepsin S [1] = molecular target: T1, Cathepsin S (Homo sapiens, UniProt P25774); experiment: Inhibition of human cathepsin S by fluorescence assay
# Cathepsin K = molecular target: T2, Cathepsin K (Homo sapiens, UniProt P43235); experiment: Inhibition of human cathepsin K by fluorescence assay
# T2 sequence (P43235 whole entry): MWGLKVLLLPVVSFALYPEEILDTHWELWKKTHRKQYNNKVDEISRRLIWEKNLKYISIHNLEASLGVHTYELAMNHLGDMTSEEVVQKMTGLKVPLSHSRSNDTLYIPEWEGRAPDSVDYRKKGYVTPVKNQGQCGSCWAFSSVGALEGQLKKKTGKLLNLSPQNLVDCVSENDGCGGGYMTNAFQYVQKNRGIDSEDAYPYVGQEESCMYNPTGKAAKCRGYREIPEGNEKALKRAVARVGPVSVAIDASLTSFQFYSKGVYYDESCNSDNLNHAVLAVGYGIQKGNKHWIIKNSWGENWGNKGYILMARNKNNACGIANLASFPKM
# Cathepsin B = Cathepsin B (Homo sapiens, UniProt P07858); experiment: Inhibition of human cathepsin B by fluorescence assay
# Procathepsin L = Procathepsin L (Homo sapiens, UniProt P07711); experiment: Inhibition of human cathepsin L by fluorescence assay
# Chain of Procathepsin L (P07711 whole entry): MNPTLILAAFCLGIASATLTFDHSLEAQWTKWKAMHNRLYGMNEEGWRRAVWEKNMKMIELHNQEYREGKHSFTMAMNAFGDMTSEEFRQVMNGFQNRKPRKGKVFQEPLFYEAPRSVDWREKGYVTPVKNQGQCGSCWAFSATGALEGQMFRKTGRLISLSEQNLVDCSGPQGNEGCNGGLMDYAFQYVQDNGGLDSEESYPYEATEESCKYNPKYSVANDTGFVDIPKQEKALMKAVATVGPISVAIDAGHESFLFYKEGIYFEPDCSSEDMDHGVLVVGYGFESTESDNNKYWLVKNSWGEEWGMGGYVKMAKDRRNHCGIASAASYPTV
# Cathepsin L2 = molecular target: T3, Cathepsin L2 (Homo sapiens, UniProt O60911); experiment: Inhibition of human cathepsin V by fluorescence assay
# T3 sequence (O60911 whole entry): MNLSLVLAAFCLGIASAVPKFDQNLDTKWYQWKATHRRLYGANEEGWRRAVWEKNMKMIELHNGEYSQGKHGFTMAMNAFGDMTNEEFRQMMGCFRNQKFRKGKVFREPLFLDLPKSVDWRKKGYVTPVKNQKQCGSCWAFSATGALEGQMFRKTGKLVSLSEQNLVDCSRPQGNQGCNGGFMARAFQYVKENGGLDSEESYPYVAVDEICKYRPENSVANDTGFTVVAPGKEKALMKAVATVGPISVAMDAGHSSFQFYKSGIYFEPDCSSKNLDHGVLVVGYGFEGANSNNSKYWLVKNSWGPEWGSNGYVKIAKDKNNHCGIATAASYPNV
# Cathepsin S [2] = molecular target: T1, Cathepsin S; experiment: Inhibition of cathepsin S in human JY cells assessed as Lip10 accumulation by Western blotting; assay type: cell-based
# T1 sequence (P25774 whole entry): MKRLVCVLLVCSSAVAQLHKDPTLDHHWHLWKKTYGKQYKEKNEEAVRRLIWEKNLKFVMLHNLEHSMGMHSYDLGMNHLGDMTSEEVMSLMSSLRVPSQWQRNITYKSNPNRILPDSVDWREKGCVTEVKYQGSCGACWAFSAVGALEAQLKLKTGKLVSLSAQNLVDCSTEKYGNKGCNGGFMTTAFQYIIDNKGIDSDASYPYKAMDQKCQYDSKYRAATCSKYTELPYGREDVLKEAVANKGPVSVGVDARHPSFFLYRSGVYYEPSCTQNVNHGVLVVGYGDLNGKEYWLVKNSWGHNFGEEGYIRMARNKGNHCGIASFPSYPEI
Structure (SMILES),IC50 (Cathepsin S [1]) [nM],IC50 (Cathepsin K) [nM],IC50 (Cathepsin B) [nM],IC50 (Procathepsin L) [nM],IC50 (Cathepsin L2) [nM],IC50 (Cathepsin S [2]) [nM]
N#CCNC(=O)c1cccc(C(F)(F)F)c1,> 10000,> 10000,–,–,–,–
O=CCNC(=O)c1cccc(C(F)(F)F)c1,> 10000,> 10000,–,–,–,–
CCC(C=O)NC(=O)c1cccc(C(F)(F)F)c1 (stereo not drawn),1070,–,–,–,–,–
CCC(C=O)NC(=O)c1cccc(C(F)(F)F)c1Cl (stereo not drawn),31,32,–,–,–,–
CCC(C=O)NC(=O)c1cccc(C(F)(F)F)c1F (stereo not drawn),36,–,–,–,–,–
CCC(C=O)NC(=O)c1cccc(C(F)(F)F)c1C (stereo not drawn),18,–,–,–,–,–
CC(C=O)NC(=O)c1cccc(C(F)(F)F)c1Cl (stereo not drawn),110,–,–,–,–,–
CCC(C=O)NC(=O)c1cccc(C(F)(F)F)c1OC (stereo not drawn),692,–,–,–,–,–
CC(NC(=O)c1cccc(C(F)(F)F)c1Cl)C(=O)C(N)=O (stereo not drawn),30.9,107,–,–,–,–
CC(NC(=O)c1cccc(C(F)(F)F)c1Cl)C(=O)C(=O)Nc1cc[nH]n1 (stereo not drawn),14.1,51.3,–,–,–,–
Cc1cc(NC(=O)C(=O)C(C)NC(=O)c2cccc(C(F)(F)F)c2Cl)[nH]n1 (stereo not drawn),10.5,26.3,–,–,–,–
CCOc1ccc(C(=O)NC(C)C(=O)C(N)=O)c(Cl)c1C(F)(F)F (stereo not drawn),11,195,–,–,–,–
CNC(=O)C(=O)C(C)NC(=O)c1ccc(OCc2ccccn2)c(C(F)(F)F)c1Cl (stereo not drawn),19.5,46.8,> 10000,> 10000,1120,–
CC(NC(=O)c1ccc(OCc2ccccn2)c(C(F)(F)F)c1Cl)C(=O)C(=O)N(C)C (stereo not drawn),> 10000,> 10000,> 10000,> 10000,> 10000,–

# These reach a lower IC50 (Cathepsin S [1]). Values come first.
IC50 (Cathepsin S [1]) [nM],IC50 (Cathepsin K) [nM],IC50 (Cathepsin B) [nM],IC50 (Procathepsin L) [nM],IC50 (Cathepsin L2) [nM],IC50 (Cathepsin S [2]) [nM],Structure (SMILES)
8.5,33.1,–,–,–,–,CC(NC(=O)c1cccc(C(F)(F)F)c1Cl)C(=O)C(=O)Nc1ccn(C)n1 (stereo not drawn)
2.3,11.7,5750,891,29.5,1300,CCC(NC(=O)c1cccc(C(F)(F)F)c1Cl)C(=O)C(=O)Nc1ccn[nH]1 (stereo not drawn)
2.9,91.2,–,–,–,–,CCOc1ccc(C(=O)NC(C)C(=O)C(=O)Nc2ccn[nH]2)c(Cl)c1C(F)(F)F (stereo not drawn)
4.8,37.2,–,–,–,–,CC(NC(=O)c1ccc(OCc2ccccn2)c(C(F)(F)F)c1Cl)C(=O)C(N)=O (stereo not drawn)
1.1,–,–,–,–,1920,CCC(NC(=O)c1ccc(OCc2ccccn2)c(C(F)(F)F)c1Cl)C(=O)C(N)=O (stereo not drawn)
1,12.9,15100,479,36.3,–,CC(NC(=O)c1ccc(OCc2ccccn2)c(C(F)(F)F)c1Cl)C(=O)C(=O)Nc1ccn(C)n1 (stereo not drawn)
1.1,20.9,3240,141,16.6,78,CCC(NC(=O)c1ccc(OCc2ccccn2)c(C(F)(F)F)c1Cl)C(=O)C(=O)Nc1ccn(C)n1 (stereo not drawn)
2.3,11.5,–,–,–,–,CC(C)C(NC(=O)c1ccc(OCc2ccccn2)c(C(F)(F)F)c1Cl)C(=O)C(=O)Nc1ccn(C)n1 (stereo not drawn)
1.9,47.9,–,–,–,–,CCCCC(NC(=O)c1ccc(OCc2ccccn2)c(C(F)(F)F)c1Cl)C(=O)C(=O)Nc1ccn(C)n1 (stereo not drawn)
